Results published in a melting point compilation (Tetko et al.; mined from patent text by program, amines drawn as free bases though some values may be those of a salt).

Row | melting point | SMILES
1 | 208 to 209 °C | CC(C)(C)OC(=O)Nc1cc(Sc2ccc3c(C(=O)O)cccc3c2)ncn1
2 | 218 to 220 °C | COC(=O)c1ccc2c(c1)C(=O)NC(C(Cl)(Cl)Cl)O2 (stereo unspecified)
3 | > 300 °C | Nc1c(S(=O)(=O)c2ccc(O)cc2)c2nccnc2n2ccnc12
4 | 116 to 119 °C | CCn1c(C)nc2cc(C(F)(F)F)c(Cl)c(NC)c21
5 | 121 to 122 °C | CCCCCS(=O)(=O)NC(=O)CCCc1cc(OCCCC)nn1Cc1ccc(Cl)cc1Cl
6 | 110 to 111 °C | C=Cc1nc(NC)sc1-c1ccncc1
7 | 266 to 268 °C | O=C(Nc1cccc(Cl)c1)N1CCN(C(=O)c2ccc(Nc3ccnc4cc(C(F)(F)F)ccc34)cc2)CC1
8 | 126 °C | Fc1ccc(Cn2c(NC3CCN(CCc4ccccc4)C3)nc3ccccc32)cc1 (stereo unspecified)
9 | 172 °C | CS(=O)(=O)c1cnc2c(c1)CCC(c1ccc(Cl)c(Cl)c1)O2 (stereo unspecified)
10 | 103 to 104 °C | O=Cc1cc(Cl)c(F)cc1O
11 | 120 to 123 °C | CCc1c(C)n(C)c2ccc(NC(=O)Nc3ccccn3)cc12
12 | 184 to 185 °C | CC(=O)N1CCCC(=O)c2ccc(Cl)cc2C(c2ccccc2)CC1=O (stereo unspecified)
13 | 140 to 143 °C | Nc1ncnc2c1c(-c1ccc3cn[nH]c3c1)nn2Cc1oc2ccccc2c(=O)c1-c1ccccc1
14 | 201 to 203 °C | CCCCn1c(-c2ccccc2)c(Cc2c(O)ccc3ccccc23)c(=O)[nH]c1=S
15 | 224 to 226 °C | N#Cc1cc(C(F)(F)F)[nH]c1-c1ccc(Br)o1
16 | 187 to 189 °C | CCOc1ccc(NC(=O)c2cnc3c(N)cccc3c2)cc1
17 | 183 to 185 °C | CCCCCCC(C(=O)O)c1ccc(NC(=O)C2(O)c3ccccc3-c3ccccc32)cc1 (stereo unspecified)
18 | 133 to 135 °C | O=C1CC(C(=O)Nc2ccccc2O)CN1 (stereo unspecified)
19 | 306 to 308 °C | CCCC(=O)Nc1cnc2cc(F)ccc2c1O
20 | 191 to 193 °C | O=C(O)C(Cc1ccc2c(c1)OCO2)Cc1ccc2c(c1)OCO2
21 | > 360 °C | O=c1c2c(c1=O)Nc1cc(Cl)c(Cl)cc1N2
22 | 67 to 68.5 °C | FC(=C(Cl)Cl)c1ccc(-c2ccccc2)s1
23 | 144 °C | N#Cc1ccc(NC(=S)NCc2ccccn2)cc1
24 | 156 to 158 °C | CC(C)(C)COc1nc(N2CCNCC2)nc(N2CCS(=O)CC2)c1[N+](=O)[O-]
25 | 204 to 205 °C | CCc1cc(OCc2ccc(-c3ccccc3C(=O)O)cc2)c2ccccc2n1

Row | melting point | SMILES
26 | 71 to 75 °C | COC(=O)Cc1ccc(CNC(=O)C2Cc3ccccc3N2S(=O)(=O)c2ccc(-c3ccc(F)cc3C)cc2)cc1 (stereo unspecified)
27 | 198 to 200 °C | O=c1oc2c3ccccc3ccc2c2occc12
28 | 110 to 112 °C | COC(=O)c1cccc(-c2cc(CCN3CCCC3=O)c3cc(OC)ccc3c2)c1
29 | 86 to 88 °C | CNC(=NC#N)NCCSCc1cc(C)c(CN(C)C)o1
30 | 287 to 289 °C | Cc1c(-c2ccccc2)oc2c(C(=O)O)cc(Br)cc2c1=O
31 | 186 to 189 °C | CCCCCOC(=O)C1=C(C)NC(C)=C(C(=O)NC(C)C)C1c1ccccc1[N+](=O)[O-] (stereo unspecified)
32 | 77 to 78 °C | COc1ccccc1OCC(O)CN1CCC(=O)CC1 (stereo unspecified)
33 | 138 to 140 °C | Nc1nc2c(OCCOc3nccnc3N3CCNCC3)cccc2o1
34 | 66 to 69 °C | C=CC(O)(C(CCCCOc1ccccc1)n1cncn1)C(C)(C)C (stereo unspecified)
35 | 71 °C | C=CCc1cc(CC(=O)OC)ccc1OCc1ccc2ccccc2n1
36 | 217 to 220 °C | CC(C)(C)c1nc(C(=O)c2ncc[nH]2)nc(C(C)(C)C)c1O
37 | 143 to 145 °C | CCN(CC)C(=O)/C=C/CSc1nc(N)cc(Cl)n1
38 | 147 to 149 °C | CC(CCc1nnn[nH]1)Oc1cccc(OCc2ccc3ccccc3n2)c1 (stereo unspecified)
39 | 155 to 160 °C | O=C(NCc1ccccc1)c1ccc2[nH]ccc2c1
40 | 110 °C | O=C(O)CN(C(=O)OCc1ccccc1)C1CCCC1
41 | 166 to 167 °C | CCN1C(=O)C(C)(C)C(=O)N(C)c2cc(CN(CCn3cc(C)c4occc4c3=O)Cc3cnc(C)nc3)ccc21
42 | 58 to 59 °C | CCc1c(O)cccc1O
43 | 125 to 126 °C | COc1ccc(-n2nnc3ccc(-c4nnc(CCc5cccc(F)c5)o4)cc32)cc1
44 | 140 to 141 °C | CN(C)C1CCC(O)(c2ccccc2Cc2ccccc2)CC1 (stereo unspecified)
45 | 156 to 157 °C | ON=C1c2ccccc2CCC1c1ccccc1 (stereo unspecified)
46 | 66 to 67 °C | COc1cc2c(cc1Nc1ncc(Cl)c(Nc3ccccc3-n3cccn3)n1)CCN(CC(=O)N(C)C)CC2
47 | 144 °C | CC(=O)OC1CSC(Oc2c(C)ccnc2Cl)C(OC(C)=O)C1OC(C)=O (stereo unspecified)
48 | 166 °C | Fc1cccc(F)c1C1=NC(c2ccc(-c3ccc(OCc4ccc(C(F)(F)F)cc4)cc3)cc2)CO1 (stereo unspecified)
49 | 82 to 83 °C | O=C1c2ccc(CCCCc3ccccc3)cc2CCN1O
50 | 91 to 92 °C | O=C1[C@H]2CCCC[C@H]2C(=O)N1Cc1ccncc1

Row | melting point | SMILES
51 | 312 to 314 °C | Cc1nc2c([nH]1)C(=O)N1CCN=C1N2Cc1ccc(Cl)cc1
52 | 264 to 266 °C | COc1ccc(-c2cc(C(=O)O)cc3ccc4c(c23)OCO4)cc1
53 | 102 to 104 °C | Cc1cc(Oc2ncc(C(F)(F)F)cc2Cl)nn1C(=O)N(C)C
54 | 264 to 266 °C | Clc1ccc(-c2n[nH]c(-c3ccncc3)n2)cc1
55 | 139 to 141 °C | COc1ccc(C=C(C#N)c2ccc(F)cc2)cc1OC1CCCC1
56 | 108 to 110 °C | Cc1cc(C2(C(F)(F)F)CC(c3ccc(F)cc3)=NO2)ccc1N (stereo unspecified)
57 | 263 to 266 °C | Cc1ccc(-c2ccnc3c(C(N)=O)ncn23)cc1
58 | 114 to 115 °C | CC(C)N(C[C@H](O)[C@H](Cc1ccccc1)NC(=O)OCc1ccccc1)NC(=O)OC(C)(C)C
59 | 174 °C | CCc1nc2c(C(F)(F)F)cccc2c(O)c1C(=O)O
60 | 83 to 84 °C | CCCCCCCCCCCc1ccc(CC(=O)O)cc1
61 | 131 °C | COc1ccccc1N1CCN(CC(O)COc2cccc(C(=O)C=CN(C)C)c2)CC1 (stereo unspecified)
62 | 202 to 203 °C | NC(=O)c1ccc(-c2cccc3cc(Cc4cc(F)cc(Cl)c4)sc23)cc1
63 | 191 to 193 °C | CCCCCc1c(-c2ccc(OC(F)F)c(OC3CC3)c2)[nH]c2cn[nH]c(=O)c12
64 | 84.5 to 86 °C | COC(=O)c1ccccc1-c1cnc(-c2cccc(C(F)(F)F)c2)o1
65 | 186 to 188 °C | NC(=S)c1cn(COCCO)c2ncnc(N)c12
66 | 88 °C | COC(=O)CCC#Cc1cc(Cl)ccc1NS(=O)(=O)c1ccc(C(C)=O)cc1
67 | 241 to 246 °C | O=C(O)c1cc(=O)cc(-c2ccccc2Cl)o1
68 | 132 to 134 °C | CCOC(=O)/C(=N/OC)c1ccc(OCCOc2ccc3ccccc3c2)s1
69 | 252 to 253 °C | COc1ccc2c(c1)CCC1C2CCC2(C)C(NC=O)CCC12 (stereo unspecified)
70 | 164 to 165 °C | O=C(O)[C@H](Cc1ccccc1)NS(=O)(=O)c1ccc(N2CCC(Cc3ccccc3)CC2)cc1
71 | 231 to 234 °C | Cc1cc(-c2ccc(O)nc2)cc(C=O)c1N
72 | 86 to 88 °C | CC(C)(C)OC(=O)CC1(C(=O)OCc2ccccc2)C(=O)N(Cc2ccc(Cl)c(Cl)c2)C(=O)c2cccn21 (stereo unspecified)
73 | 250 to 252 °C | O=S(=O)(N=C(O)c1ccc(OCCn2ccnc2)cc1)c1ccccc1
74 | 228 °C | N#Cc1c(Cl)nc2cscc2c1Cl
75 | 185 °C | CCCCCCCCCCCCCCCCOC(=O)Nc1ccc(NC(=O)NS(=O)(=O)c2ccc(OC)cc2)cc1

Row | melting point | SMILES
76 | 140 to 142 °C | COc1nc(N)nc2c1ncn2C1O[C@H](CO)C[C@@]1(C)O (stereo partly specified)
77 | 64 to 65 °C | c1ccc(C23CC(C2)C3)cc1
78 | 120 °C | CNC(=O)[C@@H]1CSCN1S(=O)(=O)c1ccc(Cl)c(COc2cccc3c(-n4ccnc4)cc(C)nc23)c1Cl
79 | 400 °C | Nc1c(O)c2ccccc2oc1=O
80 | 153 to 156 °C | CCCNc1nc(C#N)c(C#N)nc1SCc1ccccc1
81 | 141 to 143 °C | Cc1cn(-c2ccc(NC(=O)c3ccc(C)c(C#Cc4ccc(NC(C)C)nn4)c3)cc2C(F)(F)F)cn1
82 | 219 °C | CCCc1c2nc(C(=O)OC)cc(NS(=O)(=O)c3ccc(C)cc3)c2cc2c(=O)cc(C(=O)OCC)oc12
83 | 267 to 268 °C | Cn1cc(-c2cc3cccnc3[nH]2)c2cc(OC3(C(N)=O)CCC3)ccc21
84 | 110 °C | CCCCC[C@H]1CC[C@H](c2cnc([C@H]3CC[C@H](C#N)CC3)nc2)CC1
85 | 94 to 108 °C | COc1cc(C2CCN(C[C@@H](C)O)CC2)ccc1Nc1ncc2ccc(-c3cc(Cl)ccc3OC)n2n1
86 | 117 to 118 °C | O=C(NCCc1cccc2ccccc12)C1CC1
87 | 177 to 178 °C | Cc1nnc2n1-c1ccccc1NC2(C)C
88 | > 280 °C | Nc1ncc(-c2ccc(=O)[nH]n2)c(-c2ccccc2)n1
89 | 130 to 132 °C | CCCCCCCCC1C=CC(Oc2ccc(C(=O)O)o2)=C2N=C3CCCCC3=C21 (stereo unspecified)
90 | 170 °C | COc1ccc(-c2c(C#N)c(CNS(=O)(=O)c3c(F)cccc3F)nn2-c2ccc(Cl)cc2Cl)cc1
91 | 101 to 102 °C | COC(=O)COc1cccc2c(CNC(=O)COc3ccccc3)coc12
92 | > 200 °C | CCCN1CCCC2Cc3nc(NC(C)=O)sc3CC21 (stereo unspecified)
93 | 215 to 217 °C | Cc1ccc(-c2ccc3c(c2)C=C(C(=O)Nc2ccc(C(O)c4ccccn4)cc2)CCO3)cc1 (stereo unspecified)
94 | 106 to 108 °C | COCC1CN(c2ccc(C3=CCCCC3)cc2)C(=O)O1 (racemic)
95 | 163 to 164 °C | COc1ccc(-n2cnc3ccc(-c4nnc(SCc5ccc(OC)c(C(F)(F)F)c5)o4)cc32)cc1
96 | 229 to 230 °C | Nc1ccc(C(=O)c2cccnc2)cc1[N+](=O)[O-]
97 | 108 to 110 °C | O=C(CCc1ccccc1)N[C@H](Cc1ccc(Oc2ccccc2)cc1)[C@@H](O)c1ccc(F)cc1 (racemic)
98 | 198 °C | CCOC(=O)c1cc2c(nc(C)n2C)c2c1CCC(OC)(c1ccccc1C)O2 (stereo unspecified)
99 | 191 to 193 °C | C#CCOc1ccc2c(C)cc(=O)oc2c1C(=O)C=Cc1cc(OC)c(OC)c(OC)c1

Row | SMILES | melting point
100 | O=S(=O)(Br)c1cccs1 | 49 to 51 °C
101 | CN1CCN(c2ccc3ccccc3n2)CC1 | 110 to 112 °C
